In US4621145A, “Process for preparing 5-vinyl-2-pyrrolidinone and intermediates therefor” (Merrell Dow Pharmaceuticals Inc., priority 1982, dated 1986):

Legend:
[1] = tested on: level of γ-aminobutyric acid (GABA) in the CNS; details: background; cited from earlier work
[2] = tested on: γ-aminobutyric acid transaminase (GABA-T); details: background, U.S. Pat. No. 3,960,927 and literature; cited from earlier work
[3] = tested on: GABA-T enzyme; assay: Biological activity of 4-amino-5-hexenoic acid enantiomers; details: GABA-T inhibition
[4] = tested on: GABA-T; assay: Irreversible inhibition of GABA-T in vitro; type: biochemical
[5] = tested on: GABA concentrations in mice brain; assay: GABA concentrations in mice brain, test method of Jung et al., J. Neurochemistry; type: in vivo; details: 4 hours after injection
Description: (§1) The biochemical and pharmacological effects of 4-aminohex-5-ynoic acid are described in Jung et al., Biochem. and Biophys. Res. Comm., 67, 301 (1975); Jung et al., J. Neurochemistry, 28, 717 (1977); Jung et al., Biochemistry, 17, 2628 (1978); Bouclier et al., Eur. J. Biochem., 98, 363 (1979); Biochem. Pharmacology, 28, 1705 (1979); and Lippert et al., Brain Research Bull., 5, 375 (1980). […] For example, (R)-4-aminohex-5-ynoic acid gave the follow effects on GABA-T activity and GABA concentrations in mice brain using the test method of Jung et al., J. Neurochemistry, supra:
(§2) ^(a) 4 hours after injection of the test compound, i.p.

[6] = tested on: convulsions and death, induced by mercaptopropionic acid; assay: Protection of mice against effects induced by mercaptopropionic acid; type: in vivo; details: mercaptopropionic acid 53 mg/kg i.p. 6 hours after
[7] = tested on: GABA-T; assay: Chronic oral experiment in rats: GABA-T activity in homogenates of brain minus the cortex; type: in vivo; details: oral daily 100 mg/kg, 24 hours after last dose
Method: (§3) In a chronic experiment, a group of five rats was given oral daily doses of 100 mg/kg of (R)-4-aminohex-5-ynoic acid. A separate group of animals was used as control. Twenty-four hours after the last dose, the animals were sacrificed and the cortex was dissected from the rest of the brain.

[8] = tested on: GABA-T; assay: Irreversible inhibition of GABA-T in vivo
[9] = parameters: species or system rats; details: rat, in vivo, po, 100 mg/kg
[10] = tested on: GABA-T; assay: GABA-T activity in mice brain, test method of Jung et al., J. Neurochemistry; type: in vivo; details: 4 hours after injection
Description: as §1, §2

[11] = tested on: GABA concentration in homogenates of the cortex; assay: Chronic oral experiment in rats: GABA concentration in homogenates of the cortex; type: in vivo; details: oral daily 100 mg/kg, 24 hours after last dose, vs controls
Method: as §3

[12] = parameters: species or system mice; details: mouse, in vivo, ip, 400 mg/kg
[13] = tested on: GABA-T; details: reported by Lippert et al. and Bouclier et al.; cited from earlier work

C=CC(N)CCC(=O)O (stereo not drawn) [4-Amino-5-hexenoic acid]
increase of GABA level in the CNS [1]: capable of increasing the level of γ-aminobutyric acid (GABA) in the CNS | irreversible inhibition of GABA-T [2]: irreversible inhibitor

C=C[C@H](N)CCC(=O)O [(R)-4-amino-5-hexenoic acid]
biological activity of the enantiomer [3]: biologically inactive

C#C[C@H](N)CCC(=O)O [(R)-4-aminohex-5-ynoic acid, (R)-4-Aminohex-5-ynoic acid]
irreversible inhibition of GABA-T [4]: irreversible inhibitor of GABA-T | GABA Concentration % Control ([5]; 25 mg/kg i.p.): 103 % Control | GABA Concentration % Control ([5]; 50 mg/kg i.p.): 125 % Control | GABA Concentration % Control ([5]; 100 mg/kg i.p.): 180 % Control | GABA Concentration % Control ([5]; 200 mg/kg i.p.): 275 % Control | protection against convulsions and death induced by mercaptopropionic acid ([6]; 100 mg/kg i.p.): protect mice against convulsions and death | protection against running fits ([6]; 100 mg/kg i.p.): no protection against running fits | protection against convulsions and death induced by mercaptopropionic acid ([6]; 200 mg/kg i.p.): protect mice against convulsions and death | protection against running fits ([6]; 200 mg/kg i.p.): no protection against running fits | GABA-T activity decrease as compared to controls [7]: 81% | irreversible inhibition of GABA-T [8]: irreversible inhibitor of GABA-T | body weight effect [9]: lost body weight | course of body weight and hair loss effects [9]: appeared to disappear during the second week | hair loss [9]: lost hair on their backs | % Inhibition of GABA-T ([10]; 25 mg/kg i.p.): 31% | % Inhibition of GABA-T ([10]; 50 mg/kg i.p.): 50% | % Inhibition of GABA-T ([10]; 100 mg/kg i.p.): 66% | % Inhibition of GABA-T ([10]; 200 mg/kg i.p.): 81% | GABA concentration in homogenates of the cortex [11]: approximately doubled | death [12]: dead | sedation [12]: produced sedation | time to sedation [12]: ≤ 30 min

C=C[C@@H](N)CCC(=O)O [(S)-4-amino-5-hexenoic acid, (S)-4-Amino-5-hexenoic acid]
biological activity of the enantiomer [3]: biologically active

C#C[C@@H](N)CCC(=O)O [(S)-4-aminohex-5-ynoic acid]
irreversible inhibition of GABA-T (reported as only active enantiomer) [13]: irreversibly inhibit GABA-T
